Data: the NIST ThermoML archive (doi:10.1016/j.jct.2016.07.038)
Numbers after ± are expanded uncertainties.

Tests used:
[1] = Crystal; for Normal melting temperature: DTA
[2] = Molar enthalpy of transition or fusion; details: Crystal; DSC
[3] = molar heat capacity at constant pressure; details: 298.15 K; 101.33 kPa; Crystal; Small sample (50 mg) DSC

Structure (SMILES) | Normal melting temperature [1] | Molar enthalpy of transition or fusion [2] | molar heat capacity at constant pressure [3] | mass density ([1]; 298.15 K, 101.33 kPa, measuring the mass and volume of a pellet of the compound)
O=C1NCCO1 [2-oxazolidone] | 90 ± 0.4 °C | 3.89 ± 0.139 kcal/mol | 113.8 ± 3.5 J/K/mol | 
CC(=O)N1CCOC1=O [3-acetyl-2-oxazolidinone] | 69.8 ± 0.6 °C | 3.67 ± 0.124 kcal/mol | 164.7 ± 3.5 J/K/mol | 1230 ± 60 kg/m3
